From the NIST ThermoML archive (doi:10.1016/j.tca.2016.01.016)
Where “and” joins values, the source holds several entries; their conditions need not be identical. Equal values may be shown once. ± gives the expanded uncertainty stated by the source.

Experiment: molar heat capacity at constant pressure
Conditions: 101.33 kPa, Crystal, Small sample (50 mg) DSC

O=P([O-])([O-])[O-].[Er+3] [erbium phosphate]
Conditions | molar heat capacity at constant pressure
348.15 K | 113.7 ± 10 J/K/mol and 113.8 ± 9.2 J/K/mol
353.15 K | 114.5 ± 9.5 J/K/mol and 114.6 ± 9.3 J/K/mol
358.15 K | 115.2 ± 9.5 J/K/mol and 115.3 ± 9.4 J/K/mol
363.15 K | 115.9 ± 9.7 J/K/mol and 116.1 ± 9.4 J/K/mol
368.15 K | 116.4 ± 10 J/K/mol and 116.8 ± 9.5 J/K/mol
373.15 K | 116.8 ± 11 J/K/mol and 117.4 ± 9.5 J/K/mol
378.15 K | 117.4 ± 12 J/K/mol and 118.1 ± 9.6 J/K/mol
383.15 K | 118.1 ± 12 J/K/mol and 118.8 ± 9.7 J/K/mol
388.15 K | 119.1 ± 12 J/K/mol and 119.4 ± 9.7 J/K/mol
393.15 K | 119.9 ± 12 J/K/mol and 120 ± 9.7 J/K/mol
398.15 K | 120.7 ± 12 J/K/mol and 120.6 ± 9.8 J/K/mol
403.15 K | 121.5 ± 11 J/K/mol and 121.2 ± 9.8 J/K/mol
408.15 K | 122.2 ± 11 J/K/mol and 121.8 ± 9.9 J/K/mol
413.15 K | 122.9 ± 11 J/K/mol and 122.4 ± 9.9 J/K/mol
418.15 K | 123.5 ± 11 J/K/mol and 123 ± 10 J/K/mol
423.15 K | 124 ± 11 J/K/mol and 123.5 ± 10 J/K/mol
428.15 K | 124.5 ± 12 J/K/mol and 124.1 ± 10 J/K/mol
433.15 K | 125 ± 12 J/K/mol and 124.6 ± 10 J/K/mol
438.15 K | 125.4 ± 12 J/K/mol and 125.1 ± 10 J/K/mol
443.15 K | 125.9 ± 12 J/K/mol and 125.6 ± 10 J/K/mol
448.15 K | 126.4 ± 12 J/K/mol and 126.1 ± 10 J/K/mol
453.15 K | 126.9 ± 12 J/K/mol and 126.6 ± 10 J/K/mol
458.15 K | 127.4 ± 12 J/K/mol and 127.1 ± 10 J/K/mol
463.15 K | 127.8 ± 12 J/K/mol and 127.6 ± 10 J/K/mol
468.15 K | 128.2 ± 13 J/K/mol and 128 ± 10 J/K/mol
473.15 K | 128.7 ± 13 J/K/mol and 128.5 ± 10 J/K/mol
478.15 K | 129.1 ± 13 J/K/mol and 129 ± 10 J/K/mol
483.15 K | 129.5 ± 13 J/K/mol and 129.4 ± 10 J/K/mol
488.15 K | 129.9 ± 13 J/K/mol and 129.8 ± 10 J/K/mol
493.15 K | 130.3 ± 13 J/K/mol and 130.3 ± 11 J/K/mol
498.15 K | 130.7 ± 13 J/K/mol and 130.7 ± 11 J/K/mol
503.15 K | 131.1 ± 13 J/K/mol and 131.1 ± 11 J/K/mol
508.15 K | 131.5 ± 13 J/K/mol and 131.5 ± 11 J/K/mol
513.15 K | 132 ± 13 J/K/mol and 131.9 ± 11 J/K/mol
518.15 K | 132.4 ± 13 J/K/mol and 132.3 ± 11 J/K/mol
523.15 K | 132.8 ± 13 J/K/mol and 132.7 ± 11 J/K/mol
528.15 K | 133.2 ± 12 J/K/mol and 133.1 ± 11 J/K/mol
533.15 K | 133.6 ± 12 J/K/mol and 133.4 ± 11 J/K/mol
538.15 K | 134 ± 12 J/K/mol and 133.8 ± 11 J/K/mol
543.15 K | 134.5 ± 12 J/K/mol and 134.2 ± 11 J/K/mol
548.15 K | 134.8 ± 12 J/K/mol and 134.5 ± 11 J/K/mol
553.15 K | 135.1 ± 12 J/K/mol and 134.9 ± 11 J/K/mol
558.15 K | 135.4 ± 12 J/K/mol and 135.2 ± 11 J/K/mol
563.15 K | 135.8 ± 12 J/K/mol and 135.6 ± 11 J/K/mol
568.15 K | 136.1 ± 12 J/K/mol and 135.9 ± 11 J/K/mol
573.15 K | 136.3 ± 12 J/K/mol and 136.2 ± 11 J/K/mol
578.15 K | 136.6 ± 12 J/K/mol and 136.6 ± 11 J/K/mol
583.15 K | 136.9 ± 12 J/K/mol and 136.9 ± 11 J/K/mol
588.15 K | 137.2 ± 12 J/K/mol and 137.2 ± 11 J/K/mol
593.15 K | 137.5 ± 12 J/K/mol and 137.5 ± 11 J/K/mol
598.15 K | 137.8 ± 12 J/K/mol and 137.8 ± 11 J/K/mol
603.15 K | 138 ± 12 J/K/mol and 138.1 ± 11 J/K/mol
608.15 K | 138.3 ± 12 J/K/mol and 138.4 ± 11 J/K/mol
613.15 K | 138.6 ± 12 J/K/mol and 138.7 ± 11 J/K/mol
618.15 K | 138.8 ± 12 J/K/mol and 139 ± 11 J/K/mol
623.15 K | 139 ± 12 J/K/mol and 139.3 ± 11 J/K/mol
628.15 K | 139.3 ± 12 J/K/mol and 139.6 ± 11 J/K/mol
633.15 K | 139.6 ± 12 J/K/mol and 139.9 ± 11 J/K/mol
638.15 K | 139.8 ± 12 J/K/mol and 140.2 ± 11 J/K/mol
643.15 K | 140.1 ± 12 J/K/mol and 140.4 ± 11 J/K/mol
648.15 K | 140.3 ± 12 J/K/mol and 140.7 ± 11 J/K/mol
653.15 K | 140.6 ± 11 J/K/mol and 141 ± 12 J/K/mol
658.15 K | 140.9 ± 11 J/K/mol and 141.3 ± 12 J/K/mol
663.15 K | 141.2 ± 11 J/K/mol and 141.5 ± 12 J/K/mol
668.15 K | 141.4 ± 11 J/K/mol and 141.8 ± 12 J/K/mol
673.15 K | 141.6 ± 10 J/K/mol and 142 ± 12 J/K/mol
678.15 K | 141.8 ± 10 J/K/mol and 142.3 ± 12 J/K/mol
683.15 K | 142.1 ± 9.8 J/K/mol and 142.5 ± 12 J/K/mol
688.15 K | 142.3 ± 9.4 J/K/mol and 142.8 ± 12 J/K/mol
693.15 K | 142.6 ± 9.2 J/K/mol and 143 ± 12 J/K/mol
698.15 K | 142.9 ± 8.8 J/K/mol and 143.3 ± 12 J/K/mol
703.15 K | 143.1 ± 8.4 J/K/mol and 143.5 ± 12 J/K/mol
708.15 K | 143.5 ± 8.3 J/K/mol and 143.8 ± 12 J/K/mol
713.15 K | 143.7 ± 8.1 J/K/mol and 144 ± 12 J/K/mol
718.15 K | 143.9 ± 7.9 J/K/mol and 144.2 ± 12 J/K/mol
723.15 K | 144.2 ± 7.7 J/K/mol and 144.4 ± 12 J/K/mol
728.15 K | 144.4 ± 7.5 J/K/mol and 144.7 ± 12 J/K/mol
733.15 K | 144.6 ± 7.5 J/K/mol and 144.9 ± 12 J/K/mol
738.15 K | 144.8 ± 7.5 J/K/mol and 145.1 ± 12 J/K/mol
743.15 K | 145 ± 7.5 J/K/mol and 145.3 ± 12 J/K/mol
748.15 K | 145.2 ± 7.5 J/K/mol and 145.6 ± 12 J/K/mol
753.15 K | 145.5 ± 7.3 J/K/mol and 145.8 ± 12 J/K/mol
758.15 K | 145.8 ± 7.1 J/K/mol and 146 ± 12 J/K/mol
763.15 K | 146.1 ± 6.9 J/K/mol and 146.2 ± 12 J/K/mol
768.15 K | 146.3 ± 6.7 J/K/mol and 146.4 ± 12 J/K/mol
773.15 K | 146.5 ± 6.5 J/K/mol and 146.6 ± 12 J/K/mol
778.15 K | 146.8 ± 6.3 J/K/mol and 146.8 ± 12 J/K/mol
783.15 K | 147 ± 6.2 J/K/mol and 147 ± 12 J/K/mol
788.15 K | 147.2 ± 6 J/K/mol and 147.2 ± 12 J/K/mol
793.15 K | 147.5 ± 5.6 J/K/mol and 147.4 ± 12 J/K/mol
798.15 K | 147.8 ± 5.4 J/K/mol and 147.6 ± 12 J/K/mol
803.15 K | 148 ± 5.2 J/K/mol and 147.8 ± 12 J/K/mol
808.15 K | 148.2 ± 5.1 J/K/mol and 148 ± 12 J/K/mol
813.15 K | 148.5 ± 5.1 J/K/mol and 148.2 ± 12 J/K/mol
818.15 K | 148.7 ± 4.9 J/K/mol and 148.4 ± 12 J/K/mol
823.15 K | 148.9 ± 4.9 J/K/mol and 148.5 ± 12 J/K/mol
828.15 K | 149.1 ± 4.7 J/K/mol and 148.7 ± 12 J/K/mol
833.15 K | 149.3 ± 4.7 J/K/mol and 148.9 ± 12 J/K/mol
838.15 K | 149.5 ± 4.7 J/K/mol and 149.1 ± 12 J/K/mol
843.15 K | 149.7 ± 4.5 J/K/mol and 149.3 ± 12 J/K/mol
848.15 K | 149.9 ± 4.4 J/K/mol and 149.5 ± 12 J/K/mol
853.15 K | 150.2 ± 4.5 J/K/mol and 149.6 ± 12 J/K/mol
858.15 K | 150.3 ± 4.5 J/K/mol and 149.8 ± 12 J/K/mol
863.15 K | 150.5 ± 4.5 J/K/mol and 150 ± 12 J/K/mol
868.15 K | 150.8 ± 4.7 J/K/mol and 150.1 ± 12 J/K/mol
